Source: patent US6737383B1, “Herbicidal oxadiazolidines” (priority 1999, dated 2004)

How the values were obtained:
[1] = test system: tall mallow; test: Test D tall mallow; type: in vivo, Malva sylvestris; conditions: Preemergence, 0 to 100 scale
Text: Seeds, tubers, or plant parts of Alexandergrass (Brachiaria plantaginea), bermuda-grass (Cynodon dactylon), common pursiane (Portulaca oleracea), common ragweed (Ambrosia elatior), common groundsel (Senecio vulgaris), dallisgrass (Paspalum dilatatum), goosegrass (Eleusine indica), guineagrass (Panicum maximum), itchgrass (Rottboellia exaltata), Johnson grass (Sorghum halepense), large crabgrass (Digitaria sanguinalis), pitted morningglory (Ipomoea lacunosa), purple nutsedge (Cyperus rotundus), sandbur (Cenchrus echinatus), sourgrass (Trichachne insularis), Spanishneedles (Bidens bipinnata), surinam grass (Brachiaria decumbens) and tall mallow (Malva sylvestris) were planted into greenhouse pots of flats containing greenhouse planting medium. Plant species were grown in separate pots or individual compartments. Preemergence applications were made within one day of planting the seed or plant part.
Test chemicals were formulated in a non-phytotoxic solvent mixture which included a surfactant and applied preemergence to the surface of the pot containing seeds in a sandy loam soil. Untreated control pots and treated pots were placed in the greenhouse for growth and visually evaluated for injury 14 to 21 days after herbicide application. Plant response ratings, summarized in Table C, are based on a 0 to 100 scale where 0 is no injury and 100 is complete control. A dash (−) response means no test result.

[2] = test system: smallflower flatsedge; test: Test B flood test smallflower flatsedge; type: in vivo, Cyperus difformis
Procedure, shortened: (§1)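 Read-out is a visual response score from 0 (no effect) to 10 (complete control), assigned by comparison with untreated controls. Treatment was applied at the 2-leaf stage, and plants stayed in the greenhouse for twelve to sixteen days before scoring.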

[3] = test system: guineagrass; test: Test D guineagrass; type: in vivo, Panicum maximum; conditions: Preemergence, 0 to 100 scale
Procedure, shortened: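 Greenhouse pots, seeds in sandy loam; compounds formulated in non-phytotoxic solvent with surfactant; preemergence treatments went on the soil surface within one day of planting. Injury rated visually 14 to 21 days after application on a 0 (none) to 100 (complete control) scale.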

[4] = test system: bamyardgrass; test: Test B flood test barnyardgrass; type: in vivo, Echinochloa crus-galli
Procedure, shortened: as §1

[5] = test system: sugar beet; test: Test B pre/postemergence sugar beet; type: in vivo, Beta vulgaris
Procedure, shortened: (§2)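 Test chemicals in a non-phytotoxic solvent mixture with surfactant were sprayed preemergence onto planted seeds and postemergence onto plants 2 to 18 cm tall (1- to 4-leaf stage). After twelve to sixteen days in a greenhouse, injury was visually rated against untreated controls from 0 (no effect) to 10 (complete control).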

[6] = test system: cocklebur; test: Test B pre/postemergence cocklebur; type: in vivo, Xanthium strumarium
Procedure, shortened: as §2

[7] = Rate 16 g/ha, 0 no injury, 100 complete control
[8] = Rate 32 g/ha, 0 no injury, 100 complete control
[9] = Rate 64 g/ha, 0 no injury, 100 complete control
[10] = Rate 125 g/ha, 0 no injury, 100 complete control
[11] = Postemergence, Rate 62 g/ha, scale 0 to 10, 0 is no effect, 10 is complete control
[12] = Rate 125 g/ha, Postemergence section (flood test species), scale 0 to 10, 0 no effect, 10 complete control
[13] = Rate 250 g/ha, headed Pre-emergence (flood test species), scale 0 to 10 (0 no effect, 10 complete control)
[14] = Rate 500 g/ha, headed Pre-emergence (flood test species), scale 0 to 10 (0 no effect, 10 complete control)
[15] = Rate 500 g/ha, listed under Postemergence (flood test species), scale 0 to 10, 0 no effect, 10 complete control
[16] = flood test, listed under Postemergence, Rate 250 g/ha, scale 0 to 10, 0 no effect, 10 complete control
[17] = Postemergence, Rate 250 g/ha, scale 0 to 10, 0 no effect, 10 complete control
[18] = Preemergence, Rate 62 g/ha, scale 0 to 10 (0 no effect, 10 complete control)
[19] = Preemergence, Rate 125 g/ha, scale 0 to 10 (0 no effect, 10 complete control)
[20] = Preemergence, Rate 250 g/ha, scale of 0 to 10 where 0 is no effect and 10 is complete control
[21] = Preemergence, Rate 500 g/ha, scale 0 (no effect) to 10 (complete control)
[22] = Rate 125 g/ha, Postemergence, scale 0 to 10, 0 no effect, 10 complete control
[23] = Rate 500 g/ha, Postemergence, scale 0 to 10, 0 no effect, 10 complete control

## CC(C)N(C(=O)n1oc(=O)n(Cc2ccccc2)c1=O)c1ccc(F)cc1 [Compound 78]
[1]; [7]
  Plant response rating, Tall Mallow: 0
[1]; [8]
  Plant response rating, Tall Mallow: 0
[1]; [9]
  Tall Mallow plant response rating: 0
[1]; [10]
  Tall Mallow plant response rating: 0
[1]; Rate 250 g/ha
  Plant response rating, Tall Mallow: 0
[1]; Rate 500 g/ha
  Plant response rating, Tall Mallow: 0
[2]; [11]
  S. Flatsedge plant response rating: 0
[2]; Pre-emergence, Rate 1000 g/ha, scale 0 to 10 (0 no effect, 10 complete control)
  S. Flatsedge plant response rating: 0
[2]; [12]
  S. Flatsedge plant response rating: 0
[2]; [13]
  S. Flatsedge plant response rating: 0
[2]; [14]
  Plant response rating, S. Flatsedge: 0
[2]; [15]
  S. Flatsedge plant response rating: 4
[2]; Rate 2000 g/ha, Pre-emergence (as headed), scale 0 to 10
  S. Flatsedge plant response rating: 7
[2]; [16]
  S. Flatsedge plant response rating: 0
[3]; [7]
  Plant response rating, Guineagrass: 20
[3]; [8]
  Plant response rating, Guineagrass: 20
[3]; [9]
  Plant response rating, Guineagrass: 65
[3]; [10]
  Plant response rating, Guineagrass: 85
[3]; Rate 250 g/ha
  Plant response rating, Guineagrass: 100
[3]; Rate 500 g/ha
  Plant response rating, Guineagrass: 100
[4]; [11]
  Barnyardgrass plant response rating: 0
[4]; [12]
  Barnyardgrass plant response rating: 0
[4]; [13]
  Barnyardgrass plant response rating: 0
[4]; [14]
  Plant response rating, Barnyardgrass: 0
[4]; [15]
  Barnyardgrass plant response rating: 7
[4]; Rate 1000 g/ha, Pre-emergence (as headed), scale 0 to 10
  Barnyardgrass plant response rating: 0
[4]; Rate 2000 g/ha, Pre-emergence (as headed), scale 0 to 10, 0 no effect, 10 complete control
  Barnyardgrass plant response rating: 3
[4]; [16]
  Barnyardgrass plant response rating: 3
[5]; [11]
  Sugarbeets plant response rating: 2
[5]; [17]
  Sugarbeets plant response rating: 4
[5]; [18]
  Sugarbeets plant response rating: 0
[5]; [19]
  Plant response rating, Sugarbeets: 0
[5]; [20]
  Plant response rating, Sugarbeets: 5
[5]; [21]
  Sugarbeets plant response rating: 5
[5]; [22]
  Sugarbeets plant response rating: 4
[5]; [23]
  Sugarbeets plant response rating: 7
[6]; [17]
  Cocklebur plant response rating: 2
[6]; [18]
  Cocklebur plant response rating: 0
[6]; [19]
  Plant response rating, Cocklebur: 0
[6]; [20]
  Plant response rating, Cocklebur: 0
[6]; [21]
  Cocklebur plant response rating: 0
[6]; [22]
  Cocklebur plant response rating: 2
[6]; [23]
  Cocklebur plant response rating: 3
